Where a SMILES comes first, the peptide text is derived from it. Bridges are numbered along the chain shown (N, C = ends). [ ]: non-standard residue; d: D form. The star is where a group is joined. hPhe(3,5-F2-4-CF3) = N[C@@H](CCc1cc(F)c(C(F)(F)F)c(F)c1)C(=O)O; hPhe(3-Cl-4-CF3) = N[C@@H](CCc1ccc(C(F)(F)F)c(Cl)c1)C(=O)O; NPrPhe(4-CF3) = CCCN[C@@H](Cc1ccc(C(F)(F)F)cc1)C(=O)O; NEtPhe(4-CF3) = CCN[C@@H](Cc1ccc(C(F)(F)F)cc1)C(=O)O; NMeGly(cPent) = CN[C@H](C(=O)O)C1CCCC1; Nva(3-Et) = CCC(CC)[C@H](N)C(=O)O; NMeD = CN[C@@H](CC(=O)O)C(=O)O; Ac4c(3-oxa) = NC1(C(=O)O)COC1; NMeL = CN[C@@H](CC(C)C)C(=O)O; Morpholide = C1CN(*)CCO1; NMeA = CN[C@@H](C)C(=O)O; Ac5c = NC1(C(=O)O)CCCC1; Aze = O=C(O)[C@@H]1CCN1; Aib = CC(C)(N)C(=O)O; NPrGly = CCCNCC(=O)O; Sar = CNCC(=O)O
Key:
[1] = molecular target: GDP-bound NRAS wild-type protein (Homo sapiens, UniProt P01111); experiment: Binding to NRAS by surface plasmon resonance (SPR), KD and KD ratio to KRAS
Summary of the method: (§1)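 Affinity is measured by surface plasmon resonance at 30°C against captured, GDP-loaded RAS carrying a biotinylated Avi tag. Compounds are titrated by single-cycle kinetics, and KD comes from a 1:1 fit.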

HRAS wild-type protein = HRAS wild-type protein (Homo sapiens, UniProt P01112); experiment: Binding to HRAS by surface plasmon resonance (SPR), KD and KD ratio to KRAS
Summary of the method: as §1

[2] = tested on: human lung cancer strain NCI-H441; type: cell-based
Summary of the method: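 Readout: […] after the ATP-based reagent. Compound: serial dilutions in dimethyl sulfoxide.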

[3] = ratio of KD for GDP-bound NRAS wild-type protein to KD for KRAS
[4] = ratio of KD for HRAS wild-type protein to KD for KRAS
[5] = ratio of KD with respect to GDP-bound NRAS wild-type protein to KD with respect to KRAS
[6] = ratio of KD with respect to HRAS wild-type protein to KD with respect to KRAS

Chain of HRAS wild-type protein (P01112 whole entry): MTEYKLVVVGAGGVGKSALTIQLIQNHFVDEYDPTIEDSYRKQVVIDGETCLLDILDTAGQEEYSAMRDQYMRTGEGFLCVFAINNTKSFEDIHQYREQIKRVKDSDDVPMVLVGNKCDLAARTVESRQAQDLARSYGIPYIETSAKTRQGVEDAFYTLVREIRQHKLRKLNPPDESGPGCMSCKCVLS
Chain of GDP-bound NRAS wild-type protein (P01111 whole entry): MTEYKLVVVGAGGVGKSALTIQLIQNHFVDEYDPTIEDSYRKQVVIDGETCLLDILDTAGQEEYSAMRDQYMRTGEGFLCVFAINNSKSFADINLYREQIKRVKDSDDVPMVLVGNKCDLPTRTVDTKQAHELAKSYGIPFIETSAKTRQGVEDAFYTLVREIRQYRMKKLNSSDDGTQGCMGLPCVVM

Row | SMILES | NRAS /KRAS [1, 3] | HRAS /KRAS (HRAS wild-type protein; [4]) | IC50 [2] [µM] | NRAS /KRAS [1, 5] | HRAS /KRAS (HRAS wild-type protein; [6]) | NRAS /KRAS ([1]; ratio of the KD value with respect to GDP-bound NRAS wild-type protein to the KD value with respect to KRAS) | HRAS /KRAS (HRAS wild-type protein; ratio of the KD value with respect to HRAS wild-type protein to the KD value with respect to KRAS)
1 | CCCN1C(=O)CN(C)C(=O)CN(C)C(=O)[C@H](C(CC)CC)NC(=O)[C@H](CC(C)C)N(C)C(=O)C[C@@H](C(=O)N2CCOCC2)N(C)C(=O)[C@H](C2CCCC2)N(C)C(=O)C2(CCCC2)NC(=O)[C@@H]2CCCN2C(=O)[C@H](CCc2cc(F)c(C(F)(F)F)c(F)c2)NC(=O)CN(C)C(=O)[C@@H]1Cc1ccc(C(F)(F)F)cc1 [PP0768] ([NMeL][Nva(3-Et)][Sar][Sar][NPrPhe(4-CF3)][Sar][hPhe(3,5-F2-4-CF3)]P[Ac5c][NMeGly(cPent)][NMeD]-Morpholide; lactam N-11) | B (a compound having 3 or more and less than 10 is denoted as B) | C (A compound having a KD ratio of 0.1 or more and less than 3 is denoted as C) | 0.0361 | – | – | – | –
2 | CCO[C@@H]1C[C@H]2C(=O)NC3(CCC3)C(=O)N(C)[C@@H](C3CCCC3)C(=O)N(C)[C@H](C(=O)N(C)CCOC)CC(=O)N(C)[C@@H](CC3CC3)C(=O)N[C@@H]([C@@H](C)CC)C(=O)N(C)CC(=O)N(C)[C@H]3C/C=C\CCN(C3=O)[C@@H](Cc3ccc(C(F)(F)F)cc3)C(=O)N(C)CC(=O)N[C@@H](CCc3ccc4sccc4c3)C(=O)N2C1 [PP1328] | – | – | 0.134 | A (a compound having 10 or more and less than 20 is denoted as A) | A (a compound having 10 or more and less than 20 is denoted as A) | – | –
3 | CCO[C@@H]1C[C@H]2C(=O)NC3(CC(C)(C)C3)C(=O)N(C)[C@@H](C(CC)CC)C(=O)N(C)[C@H](C(=O)N(C)C)CC(=O)N(C)[C@H]3CCCC/C=C/c4ccc(cc4)C[C@@H](C(=O)N(C)CC(=O)N[C@@H](CCc4cc(F)c(C(F)(F)F)c(F)c4)C(=O)N2C1)N1CC/C=C\C[C@@H](C1=O)N(C)C(=O)CN(C)C(=O)[C@H]([C@@H](C)CC)NC3=O [PP3044] | AA (a compound having 20 or more is denoted as AA) | A (a compound having 10 or more and less than 20 is denoted as A) | 0.0071 | – | – | – | –
4 | CCO[C@@H]1C[C@H]2C(=O)NC3(CCC3)C(=O)N(C)[C@@H](C3CCCC3)C(=O)N(C)[C@H](C(=O)N(C)CCOC)CC(=O)N(C)[C@@H](CC(C)C)C(=O)N[C@@H]([C@@H](C)CC)C(=O)N(C)CC(=O)N(C)[C@H]3C/C=C\CCN(C3=O)[C@@H](Cc3ccc(C(F)(F)F)cc3)C(=O)N(C)CC(=O)N[C@@H](CCc3ccc4sccc4c3)C(=O)N2C1 [PP1325] | – | – | 0.0427 | A (a compound having 10 or more and less than 20 is denoted as A) | A (a compound having 10 or more and less than 20 is denoted as A) | – | –
5 | CCC[C@H]1C(=O)N[C@@H](C2CCOCC2)C(=O)N(C)CC(=O)N(C)[C@H]2C/C=C\CCN(C2=O)[C@@H](Cc2ccc(C(F)(F)F)cc2)C(=O)N(C)CC(=O)N[C@@H](CCc2ccc(C(F)(F)F)c(Cl)c2)C(=O)N2C[C@H](OCC)C[C@H]2C(=O)NC2(CC(C)(C)C2)C(=O)N(C)[C@@H](CC(C)(C)C)C(=O)N(C)[C@H](C(=O)N(C)C)CC(=O)N1C [PP3022] | AA (a compound having 20 or more is denoted as AA) | A (a compound having 10 or more and less than 20 is denoted as A) | 0.0514 | – | – | – | –
6 | CCCN1CC(=O)N(C)CC(=O)N(CCC)[C@@H](Cc2ccc(C(F)(F)F)cc2)C(=O)N(C)CC(=O)N[C@@H](CCc2ccc(C(F)(F)F)c(Cl)c2)C(=O)N2CCC[C@H]2C(=O)NC2(CCCC2)C(=O)N(C)[C@@H](C2CCCC2)C(=O)N(C)[C@H](C(=O)N2CCOCC2)CC(=O)N(C)[C@@H](CC(C)C)C(=O)N[C@@H]([C@@H](C)CC)C1=O [PP0253] ([NMeL]I[NPrGly][Sar][NPrPhe(4-CF3)][Sar][hPhe(3-Cl-4-CF3)]P[Ac5c][NMeGly(cPent)][NMeD]-Morpholide; lactam N-11) | B (a compound having 3 or more and less than 10 is denoted as B) | B (a compound having 3 or more and less than 10 is denoted as B) | 0.0151 | – | – | – | –
7 | CC[C@H](C)[C@@H]1NC(=O)[C@H](CC(C)C)N(C)C(=O)C[C@@H](C(=O)N2CCOCC2)N(C)C(=O)[C@H](C2CCCC2)N(C)C(=O)C(C)(C)NC(=O)[C@@H]2CCCN2C(=O)[C@H](CCc2ccc(C(F)(F)F)c(Cl)c2)NC(=O)CN(C)C(=O)[C@H](Cc2ccc(C(F)(F)F)cc2)N(CC)C(=O)[C@@H]2CCN2C(=O)[C@H](C)N(C)C1=O [PP0221] ([NMeL]I[NMeA][Aze][NEtPhe(4-CF3)][Sar][hPhe(3-Cl-4-CF3)]P[Aib][NMeGly(cPent)][NMeD]-Morpholide; lactam N-11) | C (A compound having a KD ratio of 0.1 or more and less than 3 is denoted as C) | C (A compound having a KD ratio of 0.1 or more and less than 3 is denoted as C) | 0.0029 | – | – | – | –
8 | CCO[C@@H]1C[C@H]2C(=O)NC3(CC(C)(C)C3)C(=O)N(C)[C@@H](C3CCCC3)C(=O)N(C)[C@H](C(=O)N(C)C)CC(=O)N(C)[C@@H]([C@H](C)OC)C(=O)N[C@@H]([C@@H](C)CC)C(=O)N3CCC[C@H]3C(=O)N(C)[C@H]3C/C=C\CCN(C3=O)[C@@H](Cc3ccc(C)cc3)C(=O)N(C)CC(=O)N[C@@H](CCc3ccc(C(F)(F)F)c(Cl)c3)C(=O)N2C1 [PP3201] | A (a compound having 10 or more and less than 20 is denoted as A) | A (a compound having 10 or more and less than 20 is denoted as A) | 0.128 | – | – | – | –
9 | CCCN1C(=O)CN(C)C(=O)CN(C)C(=O)[C@H]([C@@H](C)CC)NC(=O)[C@@H]2COCCCC[C@@](C)(NC(=O)[C@@H]3C[C@@H](OCC)CN3C(=O)[C@H](CCc3cc(F)c(C(F)(F)F)c(F)c3)NC(=O)CN(C)C(=O)[C@@H]1Cc1ccc(C(F)(F)F)cc1)C(=O)N(C)[C@@H](C1CCCC1)C(=O)N(C)[C@H](C(=O)N1CCOCC1)CC(=O)N2C [PP0899] | A (a compound having 10 or more and less than 20 is denoted as A) | B (a compound having 3 or more and less than 10 is denoted as B) | 0.923 | – | – | – | –
10 | CCO[C@@H]1C[C@H]2C(=O)NC3(CCC3)C(=O)N(C)[C@@H](C3CCCC3)C(=O)N(C)[C@H](C(=O)N(C)C)CC(=O)N(C)[C@@H](CC)C(=O)N[C@@H]([C@@H](C)CC)C(=O)N(C)CC(=O)N(C)[C@H]3CCCCCN(C3=O)[C@@H](Cc3ccc(F)cc3C)C(=O)N(C)CC(=O)N[C@@H](CCc3cc(F)c(C(F)(F)F)c(F)c3)C(=O)N2C1 [PP0911] | B (a compound having 3 or more and less than 10 is denoted as B) | B (a compound having 3 or more and less than 10 is denoted as B) | 0.0102 | – | – | – | –
11 | CC[C@H](C)[C@@H]1NC(=O)[C@H](CC)N(C)C(=O)C[C@@H](C(=O)N(C)C)N(C)C(=O)[C@H](C2CCCC2)N(C)C(=O)C2(CCC2)NC(=O)[C@@H]2C[C@@H](N3CCC(F)(F)CC3)CN2C(=O)[C@H](CCc2cc(F)c(C(F)(F)F)c(F)c2)NC(=O)CN(C)C(=O)[C@H](Cc2ccc(C(F)(F)F)cc2)N2CCCC[C@@H](C2=O)N(C)C(=O)CN(C)C1=O [PP0656] | – | – | 0.0265 | – | – | C (A compound having a KD ratio of 0.1 or more and less than 3 is denoted as C) | C (A compound having a KD ratio of 0.1 or more and less than 3 is denoted as C)
12 | CCO[C@@H]1C[C@H]2C(=O)NC3(CCC3)C(=O)N(C)[C@@H](C3CCCC3)C(=O)N(C)[C@H](C(=O)N(C)C)CC(=O)N(C)[C@@H](Cc3cccc(Cl)c3)C(=O)N[C@@H]([C@@H](C)CC)C(=O)N(C)CC(=O)N(C)[C@H]3CCCCCN(C3=O)[C@@H](Cc3ccc(C(F)(F)F)cc3)C(=O)N(C)CC(=O)N[C@@H](CCc3cc(F)c(C(F)(F)F)c(F)c3)C(=O)N2C1 [PP0939] | B (a compound having 3 or more and less than 10 is denoted as B) | B (a compound having 3 or more and less than 10 is denoted as B) | 0.114 | – | – | – | –
13 | CCO[C@@H]1C[C@H]2C(=O)NC3(CC(C)(C)C3)C(=O)N(C)[C@@H](C3CCCC3)C(=O)N(C)[C@H](C(=O)N(C)CC)CC(=O)N(C)[C@@H](CC)C(=O)N[C@@H]([C@@H](C)CC)C(=O)N(C)CC(=O)N(C)[C@H]3C/C=C\CCN(C3=O)[C@@H](Cc3ccc(C(F)(F)F)cc3)C(=O)N(C)CC(=O)N[C@@H](CCc3ccc(C(F)(F)F)c(Cl)c3)C(=O)N2C1 [PP2823] | A (a compound having 10 or more and less than 20 is denoted as A) | A (a compound having 10 or more and less than 20 is denoted as A) | 0.0076 | – | – | – | –
14 | CCCN1C(=O)[C@@H]2CCN2C(=O)CN(C)C(=O)[C@H]([C@@H](C)CC)NC(=O)[C@H](CC(C)C)N(C)C(=O)C[C@@H](C(=O)N2CCOCC2)N(C)C(=O)[C@H](C2CCCC2)N(C)C(=O)C2(COC2)NC(=O)[C@@H]2CCCN2C(=O)[C@H](CCc2cc(F)c(C(F)(F)F)c(F)c2)NC(=O)CN(C)C(=O)[C@@H]1Cc1ccc(C(F)(F)F)cc1 [PP0801] ([NMeL]I[Sar][Aze][NPrPhe(4-CF3)][Sar][hPhe(3,5-F2-4-CF3)]P[Ac4c(3-oxa)][NMeGly(cPent)][NMeD]-Morpholide; lactam N-11) | C (A compound having a KD ratio of 0.1 or more and less than 3 is denoted as C) | B (a compound having 3 or more and less than 10 is denoted as B) | 0.0287 | – | – | – | –
15 | CCO[C@@H]1C[C@H]2C(=O)NC3(CCC3)C(=O)N(C)[C@@H](C3CCCC3)C(=O)N(CC)[C@H](C(=O)N3CCOCC3)CC(=O)N(C)[C@@H](CC)C(=O)N[C@@H]([C@@H](C)CC)C(=O)N(C)CC(=O)N(C)[C@H]3CCCCCN(C3=O)[C@@H](Cc3ccc(C(F)(F)F)cc3)C(=O)N(C)CC(=O)N[C@@H](CCc3cc(F)c(C(F)(F)F)c(F)c3)C(=O)N2C1 [PP0944] | A (a compound having 10 or more and less than 20 is denoted as A) | A (a compound having 10 or more and less than 20 is denoted as A) | 0.344 | – | – | – | –
